In BigSolDB 2.1:

CC(C)C(=O)OCC(=O)[C@@]12O[C@H](C3CCCCC3)O[C@@H]1C[C@H]1[C@@H]3CCC4=CC(=O)C=C[C@]4(C)[C@H]3[C@@H](O)C[C@@]12C
solubility (mole fraction)
Conditions	in acetonitrile	in ethanol	in ethyl acetate	in isopropanol	in n-butanol	in n-propanol	in toluene
278.15 K	0.00485	0.00231	0.0515	0.00814	0.0669	0.0141	0.0297
280.65 K	0.00528	0.00276	0.0559	0.00948	0.0689	0.0164	0.0318
283.15 K	0.00576	0.00333	0.0604	0.0111	0.0716	0.0191	0.0342
285.65 K	0.00626	0.00398	0.0653	0.013	0.0743	0.0222	0.0367
288.15 K	0.00687	0.00478	0.0704	0.0151	0.0779	0.025	0.0392
290.65 K	0.00739	0.00568	0.076	0.0175	0.0815	0.029	0.0421
293.15 K	0.008	0.00674	0.0818	0.0203	0.0852	0.0334	0.0449
295.65 K	0.00865	0.00796	0.088	0.0234	0.0898	0.0385	0.0479
298.15 K	0.00937	0.00937	0.0945	0.0271	0.0942	0.0437	0.0511
300.65 K	0.0101	0.011	0.101	0.0312	0.0993	0.05	0.0544
303.15 K	0.0109	0.0129	0.109	0.0359	0.105	0.0567	0.0579
305.65 K	0.0117	0.0151	0.116	0.0411	0.111	0.0644	0.0616
308.15 K	0.0126	0.0176	0.124	0.047	0.118	0.0728	0.0654
310.65 K	0.0135	0.0204	0.133	0.0536	0.124	0.0825	0.0694
313.15 K	0.0143	0.0237	0.141	0.061	0.131	0.0925	0.0735
